Earlier results as cited in patent US11083740B2, “Cancer therapy” (NED Biosystems, Inc., priority 2013, dated 2021).

What was measured:
[1] = tested on: HUVECs
[2] = tested on: pancreatic carcinoma cells
[3] = in vivo
[4] = in vivo; remark: listed apart in the source
[5] = tested on: hormone refractory PC-3 prostate cancer cells; conditions: PC-3 cells
[6] = in vivo; remark: listed apart in the source
[7] = tested on: cultured bovine granulosa cells; conditions: AMPK-dependent mechanism
[8] = tested on: HUVECs; conditions: partially AMPK-dependent

## COc1ccc2[nH]cc(CCNC(C)=O)c2c1 [Melatonin, N-acetyl-5-methoxytryptamine]
[1]
  cell proliferation and migration: inhibits
[2]
  VEGF protein secreted and produced: decreases

## CC(C)[C@@H](CC[C@@H](C)[C@H]1CC[C@H]2[C@@H]3[C@H](O)C[C@H]4C[C@@H](NCCCNCCCCN)CC[C@]4(C)[C@H]3CC[C@]12C)OS(=O)(=O)O [Squalamine]
[3]
  oral bioavailability: does not have high oral bioavailability
[4]
  maximum tolerated dose (MTD): 300 mg/m2/day

## O=c1c(-c2ccc(O)cc2)coc2cc(O)cc(O)c12 [Genistein]
[5]
  IGF-1-stimulated cell growth: significant inhibition

## O=C(O)CCCCC1CCSS1 (stereo not drawn) [Alpha-Lipoic Acid, 1,2-dithiolane-3-pentanoic acid]
[6]
  bioavailability when taken with a meal: decreases

## [Met(5)]-enkephalin [Opioid Growth Factor [Met(5)]-enkephalin]
50 μg/kg injected subcutaneously twice daily
  toxicity of metronomic dosing: no toxicity
30-minute intravenous infusion once or twice weekly
  maximum tolerated dose: 0.25 mg/kg

## CN(C)C(=N)N=C(N)N [Metformin]
[7]
  response to IGF1: reducing cell growth, protein synthesis, MAPK3/1, and P90RSK phosphorylation
[8]
  proliferation, migration, and MMP-2 and -9 expression: strongly inhibited
